From the NIST ThermoML archive (doi:10.1016/j.jct.2014.06.012)

Conditions: for molar entropy: 101.33 kPa; for Triple point temperature: Adiabatic calorimetry

O=P([O-])([O-])[O-].[Cs+].[Mn+2] [cesium manganese(II) phosphate]
Conditions | molar entropy [J/K/mol]
5 K, Crystal 3, Vacuum adiabatic calorimetry | 0.572
6 K, Crystal 3, Vacuum adiabatic calorimetry | 0.9894
6.9 K, Crystal 2, Vacuum adiabatic calorimetry | 3.334
6.9 K, Crystal 3, Vacuum adiabatic calorimetry | 1.463
7 K, Crystal 2, Vacuum adiabatic calorimetry | 3.434
8 K, Crystal 2, Vacuum adiabatic calorimetry | 4.099
9 K, Crystal 2, Vacuum adiabatic calorimetry | 4.639
10 K, Crystal 2, Vacuum adiabatic calorimetry | 5.163
15 K, Crystal 2, Vacuum adiabatic calorimetry | 8.007
20 K, Crystal 2, Vacuum adiabatic calorimetry | 11.12
25 K, Crystal 2, Vacuum adiabatic calorimetry | 14.62
30 K, Crystal 2, Vacuum adiabatic calorimetry | 18.46
35 K, Crystal 2, Vacuum adiabatic calorimetry | 22.54
40 K, Crystal 2, Vacuum adiabatic calorimetry | 26.78
45 K, Crystal 2, Vacuum adiabatic calorimetry | 31.05
50 K, Crystal 2, Vacuum adiabatic calorimetry | 35.27
60 K, Crystal 2, Vacuum adiabatic calorimetry | 43.62
70 K, Crystal 2, Vacuum adiabatic calorimetry | 51.79
80 K, Crystal 2, Vacuum adiabatic calorimetry | 59.71
90 K, Crystal 2, Vacuum adiabatic calorimetry | 67.35
100 K, Crystal 2, Vacuum adiabatic calorimetry | 74.73
110 K, Crystal 2, Vacuum adiabatic calorimetry | 81.91
120 K, Crystal 2, Vacuum adiabatic calorimetry | 88.96
127 K, Crystal 1, Vacuum adiabatic calorimetry | 95.03
127 K, Crystal 2, Vacuum adiabatic calorimetry | 93.79
130 K, Crystal 1, Vacuum adiabatic calorimetry | 97.11
140 K, Crystal 1, Vacuum adiabatic calorimetry | 103.68
150 K, Crystal 1, Vacuum adiabatic calorimetry | 110.17
160 K, Crystal 1, Vacuum adiabatic calorimetry | 116.4
170 K, Crystal 1, Vacuum adiabatic calorimetry | 122.56
180 K, Crystal 1, Vacuum adiabatic calorimetry | 128.54
190 K, Crystal 1, Vacuum adiabatic calorimetry | 134.36
200 K, Crystal 1, Vacuum adiabatic calorimetry | 140.02
210 K, Crystal 1, Vacuum adiabatic calorimetry | 145.67
220 K, Crystal 1, Vacuum adiabatic calorimetry | 151.07
230 K, Crystal 1, Vacuum adiabatic calorimetry | 156.4
240 K, Crystal 1, Vacuum adiabatic calorimetry | 161.63
250 K, Crystal 1, Vacuum adiabatic calorimetry | 166.79
260 K, Crystal 1, Vacuum adiabatic calorimetry | 171.86
270 K, Crystal 1, Vacuum adiabatic calorimetry | 176.77
280 K, Crystal 1, Vacuum adiabatic calorimetry | 181.59
290 K, Crystal 1, Vacuum adiabatic calorimetry | 186.41
298.15 K, Crystal 1, Vacuum adiabatic calorimetry | 190.24
300 K, Crystal 1, Vacuum adiabatic calorimetry | 191.15
310 K, Crystal 1, Vacuum adiabatic calorimetry | 195.81
320 K, Crystal 1, Vacuum adiabatic calorimetry | 200.46
330 K, Crystal 1, Vacuum adiabatic calorimetry | 205.03
340 K, Crystal 1, Vacuum adiabatic calorimetry | 209.61
350 K, Crystal 1, Small sample (50 mg) DSC | 214.51
360 K, Crystal 1, Small sample (50 mg) DSC | 218.67
370 K, Crystal 1, Small sample (50 mg) DSC | 222.83
380 K, Crystal 1, Small sample (50 mg) DSC | 226.99
390 K, Crystal 1, Small sample (50 mg) DSC | 231.14
400 K, Crystal 1, Small sample (50 mg) DSC | 235.3
410 K, Crystal 1, Small sample (50 mg) DSC | 239.46
420 K, Crystal 1, Small sample (50 mg) DSC | 243.61
430 K, Crystal 1, Small sample (50 mg) DSC | 247.77
440 K, Crystal 1, Small sample (50 mg) DSC | 251.93
450 K, Crystal 1, Small sample (50 mg) DSC | 255.25
460 K, Crystal 1, Small sample (50 mg) DSC | 259.41
470 K, Crystal 1, Small sample (50 mg) DSC | 262.74
480 K, Crystal 1, Small sample (50 mg) DSC | 266.06
490 K, Crystal 1, Small sample (50 mg) DSC | 270.22
500 K, Crystal 1, Small sample (50 mg) DSC | 273.55
510 K, Crystal 1, Small sample (50 mg) DSC | 276.87
520 K, Crystal 1, Small sample (50 mg) DSC | 280.2
530 K, Crystal 1, Small sample (50 mg) DSC | 283.52
540 K, Crystal 1, Small sample (50 mg) DSC | 286.85
550 K, Crystal 1, Small sample (50 mg) DSC | 290.18
560 K, Crystal 1, Small sample (50 mg) DSC | 293.5
570 K, Crystal 1, Small sample (50 mg) DSC | 296.83
580 K, Crystal 1, Small sample (50 mg) DSC | 300.15
590 K, Crystal 1, Small sample (50 mg) DSC | 302.65
600 K, Crystal 1, Small sample (50 mg) DSC | 305.97
610 K, Crystal 1, Small sample (50 mg) DSC | 309.3
620 K, Crystal 1, Small sample (50 mg) DSC | 311.79
630 K, Crystal 1, Small sample (50 mg) DSC | 315.12
640 K, Crystal 1, Small sample (50 mg) DSC | 317.61
650 K, Crystal 1, Small sample (50 mg) DSC | 320.94

Conditions | Triple point temperature [K]
Crystal 2 | 127
Crystal 3 | 6.9
